From patent US12403121B2, “Anticancer rocaglamide derivatives” (priority 2018, dated 2025) come the findings set out here.

Read-outs that look alike come from different tables or passages of the source.

Assay [1] concerns Sch10545 Nf2−/− schwannoma cells. As to the kind of experiment: 3-day resazurin cell proliferation assay, Sch10545 schwannoma cells. Type of assay: cell-based, mouse. The settings on record: read-out: IC50 (nM) Sch10545 Nf2−/− schwannoma cells. As to the method: (§1) The human MPNST cell lines, ST8814, STS26T, S462, T265, and luciferase-expressing ST8814-Luc, the human NF2-deficient meningioma cell line Ben-Men-1, the NJ2 mouse schwannoma cell line Sch10545, and primary human Schwann cells were propagated as previously described. Oblinger et al., Neuro-Oncol., 18:1265-1277 (2016). The Ewing sarcoma cell line A673 and the osteosarcoma cell lines, 143B and MG-63, were grown in Dulbecco's Modified Eagle's (DME) medium (Millipore-Sigma) supplemented with 10% fetal bovine serum (FBS; Atlanta Biological). The silvestrol-sensitive 697 and silvestrol-resistant 697-R pre-B acute lymphoblastic leukemia cells (Gupta et al., AAPS J., 13:357-364 (2011)), the Ewing sarcoma cell line TC32, the osteosarcoma cell lines, Saos2 and OS17, and the rhabdomyosarcoma cell line RD were cultivated in RPMI 1640 medium (Millipore-Sigma) plus 10% FBS.
(§2) Actively-growing cells were seeded in 96-well plates (Sarstedt) at 2,000 cells/well for Ben-Men-1 and RD cells, 30,000 cells/well for 697 and 697-R cells, and 4,000 cells/well for all other cell lines. The following day, cells were treated with various concentrations of each compound or and 0.05% of DMSO as the control for six days for MG-63 cells or three days for all remaining cell lines. Cell proliferation was assessed using resazurin assays and the IC50 value calculated. Cell cycle analysis was performed accordingly. Burns et al., Cancer Res., 73:792-803 (2013).
(§3) To search for compounds with better drug-like properties, the inventors conducted a side-by-side comparison of ten rocaglates lacking the dioxanyl ring with silvestrol for growth-inhibitory activity in a panel of MPNST, schwannoma, and meningioma cell lines, which they had previously shown to be sensitive to the antiproliferative action of silvestrol. […] The average IC50 value of each rocaglate was determined by 3-day resazurin proliferation assays. […] Further structure and activity comparison discerned some positions on the cyclopenta[b]benzofuran scaffold that affected the antiproliferative activity of rocaglates.

For assay [2], the system named is Ben-Men-1 NF2−/− meningioma cells. As to the kind of experiment: 3-day resazurin cell proliferation assay, Ben-Men-1 meningioma cells. It counts as cell-based, human. As to conditions: read-out: IC50 (nM) Ben-Men-1 NF2−/− meningioma cells. The method, then: as §1, §2, §3
The test system of assay [3] is STS26T NF1+/+ MPNST cells. Put plainly: 3-day resazurin cell proliferation assay, STS26T MPNST cells. Type of assay: cell-based, human. As to conditions: read-out: IC50 (nM) STS26T NF1+/+ MPNST cells. The method, then: as §1, §2, §3
Assay [4] concerns ST8814 NF1−/− MPNST cells. As to the kind of experiment: 3-day resazurin cell proliferation assay, ST8814 MPNST cells. Type of assay: cell-based, human. The settings on record: read-out: IC50 (nM) ST8814 NF1−/− MPNST cells. As to the method:
as §1, §2, §3
Background: The colour change of resazurin is a common sign of viable cells or microbes.

For assay [5], the system named is panel of MPNST, schwannoma, and meningioma cell lines. Put plainly: Side-by-side growth inhibition comparison with silvestrol in a cell line panel. It counts as cell-based. The settings on record: all cell lines tested. As to the method:
as §2, §3

For assay [6], the system named is STS26T and ST8814 MPNST cells. As to the kind of experiment: Flow cytometry cell cycle analysis. Type of assay: cell-based, human. As to conditions: one- or two-IC50 doses, three days. As to the method:
as §2
In general terms: Flow cytometry measures light scatter and fluorescence of single cells or particles in a stream.

For a further assay, the system named is STS26T cells. As to the kind of experiment: Western blots of treated MPNST cells. It counts as cell-based, human. The settings on record: 1 or 2 IC50. The method, then: FIGS. 2A and 2B provide images showing that DDR and Roc increase caspase and PARP cleavage and elevated the levels of γH2AX while decreasing the expression of AKT and ERKs in MPNST cells. (A) Protein lysates prepared from STS26T cells treated for 3 days with 1 or 2 IC50 of DDR or Roc were analyzed by Western blots for the expression of various apoptosis-related proteins and mitogenic kinases AKT and ERK1/2. GAPDH served as a loading control. (B) Western blot analysis was performed on lysates from STS26T cells treated for 1 and 2 days with 1 or 2 IC50 of DDR for the expression of the DNA-damage response biomarker phosphorylated H2A.X (γH2A.X). As a positive control, lysates from HMS-97 human malignant schwannoma cells irradiated with 4 Grays (Gy) of X-ray were used.
(§4) Subconfluent cells were treated with the indicated doses of Roc or DDR for 24-72 hours and then harvested in cell lysis buffer (Cell Signaling Technology) containing 1 mM phenylmethylsufonylfluoride and protease inhibitor cocktail (Sigma-Aldrich). The protein content in cleared lysates was quantitated using the microBCA assay (ThermoFisher). Equal amounts of protein were run in sodium dodecyl sulfate-polyacrylamide gels and electrotransferred onto Immobilon-FL PVDF membranes (Millipore). The antibodies used were directed against: MDR1/ABCB1 (#13978), insulin-like growth factor-1 receptor β subunit (IGF-1Rβ; #9750), AKT (#9272), ERK1/2 (#4695), glyceraldehyde-3-phosphate dehydrogenase (GAPDH; #5174), caspase-3 (#9662), caspase-7 (#9492), cleaved caspase-7 (#9491), poly(ADP-ribose) polymerase (PARP; #9532), cleaved PARP (#5625), and phospho-histone H2A.X (pH2A.X[Ser′^39]; #9718; all from Cell Signaling Technology), NKX2.2 (sc-514161), LSD1 (sc-136174), and survivin (sc-17779; Santa Cruz Biotechnology), and FLI1 (ab15289) and cleaved caspase-3 (CC3; ab32042; Abeam). Protein bands were detected using IRDye® infrared fluorescent dye-labeled secondary antibodies and scanning on an Odyssey CLx imaging system (LI-COR Biosciences) using the appropriate fluorescent channel at a resolution of 84 μm.
To confirm induction of apoptosis in rocaglamide-treated MPNST cells, the inventors analyzed protein expression of several markers important for this process. […] A concomitant decrease in the amounts of intact caspases 3 and 7 and PARP was observed, consistent with the enhanced cleavage of these apoptotic markers and possibly due to direct effects of these rocaglamides on protein translation. Likewise, the levels of the pro-survival kinases AKT and ERK1/2 were diminished in rocaglamide-treated MPNST cells.
On the technique in general: Immunoblotting shows a protein as a band on a membrane.

Assay [7] deals with A673, TC32, 143B, MG-63, Saos2, OS17 and RD sarcoma cell lines. Put plainly: Cell proliferation in Ewing sarcoma, osteosarcoma and rhabdomyosarcoma cell lines. Type of assay: cell-based. As to the method: as §1, §2
Since MPNSTs comprise only ˜2% of all sarcomas (Farid et al. Oncologist, 19:193-201 (2014)), the inventors expanded their testing of Roc and DDR to three other more prevalent sarcomas particularly in children and young adults: Ewing sarcoma, osteosarcoma, and rhabdomyosarcoma.

Assay [8] deals with TC32 Ewing sarcoma, 143B osteosarcoma, and RD rhabdomyosarcoma cells. Put plainly: Western blots of treated sarcoma cells. It counts as cell-based. As to the method:
FIGS. 7A-7C provide images showing DDR and Roc reduce multiple signaling proteins important for the growth and survival of sarcoma cells. Lysates prepared from TC32 Ewing sarcoma (A), 143B osteosarcoma (B), and RD rhabdomyosarcoma (C) cells were treated 1 and 2 days with the indicated concentrations of DDR or Roc and analyzed by Western blotting for the expression of various oncogenic driver proteins. GAPDH was used as a loading control.
as §4
To further examine the molecular mechanisms underlying the antiproliferative effects of rocaglamides, the inventors treated TC32 Ewing sarcoma, 143B osteosarcoma, and RD rhabdomyosarcoma cells with 1- or 2-IC50 dose of DDR or rocaglamide for 1-2 days followed by Western blotting for several known drivers of cell survival and proliferation. […] They also observed reduction of the IGF-1Rβ levels in rocaglamide-treated MPNST cells. In addition, Roc and DDR decreased the levels of AKT, ERKs, cyclin D1 and survivin in treated TC32, 143B, and RD cells (FIG. 7). Intriguingly, the oncogenic fusion protein EWS-FLI1, which acts as an aberrant transcription factor in Ewing sarcoma, was not affected in Roc- and DDR-treated TC32 Ewing sarcoma cells (FIG. 7A). […] However, the expression of lysine demethylase 1 (LSD1), which modulates EWS-FLI1 transcriptional activity (Sankar et al., Oncogene, 32:5089-5100 (2013)), and NKX2.2, an EWS-FL11-regulated gene necessary for oncogenic transformation (Smith et al., Cancer Cell, 9:405-416 (2006)), were diminished by these rocaglamides in TC32 cells (FIG. 7A).

[9] abbreviates: 3-day resazurin proliferation assay, average IC50.

For the compound `COc1cc(OC)c2c(c1)OC1(c3ccc4c(c3)OCO4)C(c3ccccc3)CC(O)C21O` (centres unmarked) [4′-demethoxy-3′,4′-methylenedioxyrocaglaol], the IC50 in assay [1] (setting [9]) came out at 65 nM; in [2] (setting [9]), 85 nM; in assay [3] (setting [9]) it was 55 nM; in [4] (setting [9]), 120 nM.
Regarding `COC(=O)[C@H]1[C@@H](O)[C@@]2(O)c3c(OC)cc(OC)cc3O[C@@]2(c2ccc(OC)cc2)[C@@H]1c1ccccc1` [Methyl rocaglate], the IC50 in [1] (setting [9]) was 50 nM; in assay [2] (setting [9]), 55 nM; in assay [3] (setting [9]) it was 25 nM; in [4] (setting [9]), 35 nM.
Consider `COc1ccc([C@@]23Oc4cc(OC)cc(OC)c4[C@]2(O)[C@H](O)C[C@H]3c2ccccc2)cc1` [Rocaglaol], for which the IC50 amounted to 60 nM in assay [1] (Mus musculus, 72 h, 3-day resazurin proliferation assay, average IC50); 100 nM in assay [2] (Homo sapiens, 72 h, 3-day resazurin proliferation assay, average IC50); 40 nM in [3] (Homo sapiens, STS-26T, 72 h, 3-day resazurin proliferation assay, average IC50); 90 nM in [4] (Homo sapiens, ST88-14, 72 h, 3-day resazurin proliferation assay, average IC50).
In the case of `COC(=O)C1C(O)C2(O)c3c(OC)cc(OC)cc3OC2(c2ccc3c(c2)OCO3)C1c1ccccc1` (centres unmarked) [Methyl 4′-demethoxy-3′,4′-methylenedioxyrocaglate], the IC50 was determined as 60 nM in assay [1] (setting [9]), 80 nM in assay [2] (setting [9]), 35 nM in [3] (setting [9]) and 70 nM in assay [4] (setting [9]).
With `COc1cc(OC)c2c(c1)OC1(c3ccc4c(c3)OCO4)C(c3ccccc3)CC(O)C21OC` (centres unmarked) [8b-O-methyl-4′-demethoxy-3′,4′-methylenedioxyrocaglaol], the IC50 in assay [1] (setting [9]) was > 2500 nM; in assay [2] (setting [9]) it was > 2500 nM; in assay [3] (setting [9]) it was 5000 nM; in [4] (setting [9]), 10000 nM.
For the compound `COC(=O)C1C(O)C2(OC)c3c(OC)cc(OC)cc3OC2(c2ccc3c(c2)OCO3)C1c1ccccc1` (centres unmarked) [Methyl 8b-O-methyl-4′-demethoxy-3′,4′-methylenedioxyrocaglate], the IC50 in assay [1] (setting [9]) is 1900 nM; in assay [2] (setting [9]) it was 3800 nM; in assay [3] (setting [9]), 1300 nM; in assay [4] (setting [9]), 2000 nM.
Regarding `COc1ccc([C@@]23Oc4cc(OC)cc(OC)c4[C@]2(OC)[C@H](O)C[C@H]3c2ccccc2)cc1` [8b-O-methylrocaglaol], the IC50 in assay [1] (setting [9]), in assay [2] (setting [9]), in assay [3] (setting [9]) and in assay [4] (setting [9]) was > 20000 nM throughout.
For the compound `COC(=O)C1C(O)C2(OC)c3c(OC)cc(OC)cc3OC2(c2ccc(OC)cc2)C1c1ccccc1` (centres unmarked) [Methyl 8b-O-methylrocaglate], the IC50 in [1] (setting [9]) was 9300 nM; in [2] (setting [9]) it was > 10000 nM; in [3] (setting [9]) it was ≥ 10000 nM; in assay [4] (setting [9]), > 20000 nM.
For the compound `COc1ccc([C@@]23Oc4cc(OC)cc(OC)c4[C@]2(O)[C@H](O)[C@H](C(N)=O)[C@H]3c2ccccc2)cc1` [Didesmethylrocaglamide], the IC50 in assay [1] (Mus musculus, 72 h) was found to be 10 nM; in assay [2] (Homo sapiens, 72 h), 5 nM; in assay [3] (Homo sapiens, STS-26T, 72 h) it was 5 nM; in assay [4] (Homo sapiens, ST88-14, 72 h) it was 5 nM. Moreover, the “potency relative to silvestrol” value in assay [5] is ~2 fold. The G2/M fraction entry in assay [6] was “marked increase in the GVM fraction”. Further, in the assay on STS26T cells (STS26T MPNST cells), the “levels of γH2AX” value was “elevated”. In addition, the “cleavage of caspases 3 and 7 and PARP” value in the assay on STS26T cells (STS26T cells, 3 days) was “increased cleavage”. Moreover, the “expression of AKT and ERKs” value in the assay with STS26T cells (STS26T cells, 3 days) was “decreasing”. In [7] (every sarcoma cell line tested), the “IC50 values of DDR compared with Roc” value is given as “lower IC5O values than Roc”. Moreover, the “activity against sarcoma cell lines” value in [7] (two Ewing sarcoma, four osteosarcoma, one rhabdomyosarcoma cell lines) is “highly active”. In [8] (1- or 2-IC50 dose, 1-2 days, all three sarcoma cell lines), the “levels of the β subunit of IGF-1R” value is recorded as “reliably reduced”. Besides, the “levels of AKT, ERKs, cyclin D1 and survivin” value in assay [8] (TC32, 143B, and RD cells, 1- or 2-IC50 dose, 1-2 days) was “decreased”. In addition, in assay [8] (TC32 Ewing sarcoma cells), the “EWS-FLI1 fusion protein level” value was “not affected”. Besides, in assay [8] (TC32 cells), the “expression of LSD1 and NKX2.2” value is on record as “diminished”.
